Results taken from ChEMBL document CHEMBL2021885, “Triphenylbutanamines: kinesin spindle protein inhibitors with in vivo antitumor activity” (J Med Chem, 2012).

Legend:
[1] = target: T1, Kinesin-like protein KIF11 (Homo sapiens, UniProt P52732)
T1 sequence (P52732 whole entry): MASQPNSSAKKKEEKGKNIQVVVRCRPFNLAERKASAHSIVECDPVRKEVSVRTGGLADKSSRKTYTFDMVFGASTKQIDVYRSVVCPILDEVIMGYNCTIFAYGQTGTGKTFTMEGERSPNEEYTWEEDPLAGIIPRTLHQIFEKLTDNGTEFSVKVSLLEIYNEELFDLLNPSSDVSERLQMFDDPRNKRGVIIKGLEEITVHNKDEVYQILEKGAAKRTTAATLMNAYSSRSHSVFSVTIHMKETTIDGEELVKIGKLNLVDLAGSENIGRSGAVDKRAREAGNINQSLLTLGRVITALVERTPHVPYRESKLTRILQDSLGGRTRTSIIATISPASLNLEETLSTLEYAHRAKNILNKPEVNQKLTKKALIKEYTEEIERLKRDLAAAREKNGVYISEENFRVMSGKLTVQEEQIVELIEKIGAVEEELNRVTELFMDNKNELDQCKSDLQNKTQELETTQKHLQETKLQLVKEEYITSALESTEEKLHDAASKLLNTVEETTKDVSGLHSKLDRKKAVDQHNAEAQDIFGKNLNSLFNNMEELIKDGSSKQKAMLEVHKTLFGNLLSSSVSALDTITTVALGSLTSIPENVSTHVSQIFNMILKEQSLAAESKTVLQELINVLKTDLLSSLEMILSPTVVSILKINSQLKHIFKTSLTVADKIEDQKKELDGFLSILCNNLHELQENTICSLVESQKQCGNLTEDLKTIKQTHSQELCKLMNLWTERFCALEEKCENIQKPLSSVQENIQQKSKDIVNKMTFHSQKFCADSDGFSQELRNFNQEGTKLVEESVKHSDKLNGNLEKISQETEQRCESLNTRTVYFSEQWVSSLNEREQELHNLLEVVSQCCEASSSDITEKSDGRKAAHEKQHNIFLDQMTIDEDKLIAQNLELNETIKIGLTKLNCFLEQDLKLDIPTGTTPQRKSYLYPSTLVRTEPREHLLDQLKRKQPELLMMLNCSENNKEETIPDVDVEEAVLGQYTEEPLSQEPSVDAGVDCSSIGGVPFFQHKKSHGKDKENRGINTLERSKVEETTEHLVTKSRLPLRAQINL

[2] = Half life at pH 1.0 assessed as compound hydrolysis; format: physicochemical; details: buffer
K562 = assay: cells; details: Homo sapiens, K562, 72 h
Description: Antiproliferative activity against human K562 cells after 72 hrs by Alamar blue assay

[3] = Antiproliferative activity against human hTERT-HME1 cells after 72 hrs by Alamar blue assay; format: cell-based
HCT-116 = assay: Antiproliferative activity against human HCT116 cells after 72 hrs by Alamar blue assay; format: functional; details: HCT-116, 72 h
BXPC-3 = assay: Antiproliferative activity against human BxPC3 cells after 72 hrs by Alamar blue assay; format: functional; details: BXPC-3, 72 h
NCI-H1299 = assay: Antiproliferative activity against human NCI-H1299 cells after 72 hrs by Alamar blue assay; format: functional; details: NCI-H1299, 72 h
[4] = target: T1, Kinesin-like protein KIF11; remark: listed apart in the source
[5] = Distribution coefficient, log D of the compound at pH 7.4; format: physicochemical; details: octanol/water
[6] = Intrinsic clearance in human hepatocytes assessed as per million cells; format: ADME, cell-based, Hepatocyte
[7] = Turbidimetric solubility of the compound at pH 6; format: physicochemical; details: buffer
[8] = Turbidimetric solubility of the compound at pH 2; format: physicochemical; details: buffer
Liver microsomes = assay: Intrinsic clearance in human liver microsomes assessed as per mg of protein; format: ADME, Microsome
[9] = Lipophilicity, Log P of the compound; format: physicochemical; details: octanol/water
[10] = Dissociation constant, pKa of the compound; format: physicochemical
[11] = Turbidimetric solubility of the compound at pH 7.4; format: physicochemical; details: buffer
[12] = Apparent permeability of the compound by PAMPA method; format: ADME
Liver = assay: Intrinsic clearance in mouse liver microsomes assessed as per mg of protein; format: ADME, Microsome

Work on `NCCSC(c1ccccc1)(c1ccccc1)c1cccc(C(F)(F)F)c1` yielded a Ki [1] of 0.353 µM.
Work on `NCCOC(c1ccccc1)(c1ccccc1)c1ccccc1` yielded a t1/2 [2] of 2.5 h.
In the case of `NCCSC(c1ccccc1)(c1ccccc1)c1cccc(CN)c1`, the GI50 (K562) is reported as 2.02 µM.
Compound `CS(=O)(=O)c1ccc(C(SCCN)(c2ccccc2)c2ccccc2)cc1` has a GI50 (K562) of 2.73 µM.
`NCCSC(c1ccccc1)(c1ccccc1)c1cccc(C(=O)O)c1` gave a GI50 (K562) of 2.14 µM.
Work on `N[C@@H](CSC(c1ccccc1)(c1ccccc1)c1ccc2ccccc2c1)C(=O)O` yielded a GI50 at 72 h [3] of 0.119 µM, a GI50 (HCT-116) of 0.153 µM and a GI50 (BXPC-3) of 0.245 µM. The GI50 (NCI-H1299) was 0.227 µM, the Ki [4] was 0.0042 µM and the GI50 (K562) was 0.247 µM.
Work on `CN(C)C(=O)c1cccc(C(SCCN)(c2ccccc2)c2ccccc2)c1` yielded a GI50 (K562) of 2.83 µM and a Ki [1] of 6.06 µM.
Work on `NC(CCC(c1ccccc1)(c1ccccc1)c1ccccc1)C(=O)O` (racemic) yielded a GI50 at 72 h [3] of 0.494 µM, a GI50 (HCT-116) of 0.828 µM and a GI50 (BXPC-3) of 1.49 µM. The GI50 (NCI-H1299) was 2.83 µM and the GI50 (K562) was 0.865 µM.
`Cc1cccc(C(CCCN)(c2ccccc2)c2ccccc2)c1` showed a GI50 at 72 h [3] of 0.15 µM, a logD [5] of 2.33 and a CLH [6] of 3.93 µL/min. The solubility kinetic [7] was > 100 µM, the solubility kinetic [8] was > 100 µM and the CLH (Liver microsomes) was “Stable”. The logP [9] was 4.69, the pKa [10] was 10.1 and the solubility kinetic [11] was > 100 µM.
For `N[C@@H](CSC(c1ccccc1)(c1ccccc1)c1cccc(O)c1)C(=O)O`, the GI50 (K562) was 2.56 µM, the Papp [12] was “impermeable” and the Ki [1] was 0.0488 µM.
In the case of `CC(=O)c1cccc(C(SCCN)(c2ccccc2)c2ccccc2)c1`, the GI50 (K562) is reported as 0.706 µM.
In the case of `NCCSC(c1ccccc1)(c1ccccc1)c1cccc(OC(F)(F)F)c1`, the GI50 (K562) is reported as 1.52 µM.
Compound `N#Cc1cccc(C(SCCN)(c2ccccc2)c2ccccc2)c1` has a Ki [1] of 0.451 µM.
`NCCNC(c1ccccc1)(c1ccccc1)c1ccccc1` showed a t1/2 [2] of 7 h and a Ki [1] of 2.66 µM.
In the case of `COc1cccc(C(SCCN)(c2ccccc2)c2ccccc2)c1`, the Ki [1] is reported as 0.15 µM.
With `NCCSC(c1ccccc1)(c1ccccc1)c1cccc(F)c1` the Ki [1] was 0.377 µM.
Compound `COc1ccc(C(SC[C@H](N)C(=O)O)(c2ccccc2)c2ccccc2)cc1` has a GI50 at 72 h [3] of 0.081 µM.
In the case of `Cc1cccc(C(CC[C@H](N)C(=O)O)(c2ccccc2)c2ccccc2)c1`, the GI50 at 72 h [3] is reported as 0.042 µM, the GI50 (HCT-116) is reported as 0.095 µM and the GI50 (BXPC-3) is reported as 0.18 µM. The CLH [6] was “Stable”, the GI50 (NCI-H1299) was 0.281 µM and the CLH (Liver microsomes) was “Stable”. The CLH (Liver) was “Stable”.
Work on `CC(C)c1cccc(C(SCCN)(c2ccccc2)c2ccccc2)c1` yielded a GI50 (K562) of 0.581 µM.
`CC(=O)c1cccc(C(SC[C@H](N)C(=O)O)(c2ccccc2)c2ccccc2)c1` gave a GI50 (K562) of 0.964 µM.
With `NC(=O)c1cccc(C(SC[C@H](N)C(=O)O)(c2ccccc2)c2ccccc2)c1` the GI50 (K562) was 16.7 µM and the Papp [12] was “impermeable”.
In the case of `Cc1ccc(C(SC[C@H](N)C(=O)O)(c2ccccc2)c2ccccc2)cc1`, the GI50 at 72 h [3] is reported as 0.057 µM, the GI50 (HCT-116) is reported as 0.13 µM and the GI50 (BXPC-3) is reported as 0.284 µM. The GI50 (NCI-H1299) was 0.242 µM, the Ki [4] was 0.0136 µM and the GI50 (K562) was 0.242 µM.
`NCCSC(c1ccccc1)(c1ccccc1)c1ccc(CN)cc1` showed a GI50 (K562) of 2.59 µM.
Work on `NCCSC(c1ccccc1)(c1ccccc1)c1ccc(C(N)=O)cc1` yielded a GI50 (K562) of 4.33 µM.
Work on `NCCCC(c1ccccc1)(c1ccccc1)c1ccc(Cl)cc1` yielded a GI50 at 72 h [3] of 0.308 µM, a GI50 (HCT-116) of 0.23 µM and a GI50 (BXPC-3) of 2.31 µM. For the same compound, the GI50 (NCI-H1299) was 0.828 µM and the GI50 (K562) was 0.337 µM.
With `Cc1ccc(C(=O)N(CCCN)[C@@H](c2nc3cc(Cl)ccc3c(=O)n2Cc2ccccc2)C(C)C)cc1` [ISPINESIB] the GI50 at 72 h [3] was 0.032 µM, the logD [5] was 2.66 and the CLH [6] was 0.75 µL/min. The GI50 (K562) was 0.071 µM, the CLH (Liver microsomes) was “Stable” and the logP [9] was 4.75. For the same compound, the CLH (Liver) was “Stable” and the pKa [10] was 9.34.
With `Cc1ccc(C(CCCN)(c2ccccc2)c2ccccc2)cc1` the GI50 at 72 h [3] was 0.601 µM, the GI50 (HCT-116) was 0.154 µM and the GI50 (BXPC-3) was 1.6 µM. It also gave a GI50 (NCI-H1299) of 0.376 µM.
